The source of these data is patent US5700640A, “Inducers of gamma globin gene expression and screening assays therefor” (priority 1994, dated 1997).

The subject of test [1] is gamma globin-regulated luciferase mRNA. Nature of the test: cells. The format is cell-based, human. As to conditions: Homo sapiens, K562, 5 h, read-out: increase in luciferase mRNA. The procedure:
Total RNA was prepared by the method of McDonald as described in Sambrook et al., (1989) Molecular Cloning: A Laboratory Manual, 2nd Edition, Cold Spring Harbor Laboratory Press. 10 μg total cellular RNA was electrophoresed through agarose gels containing 3.3% formaldehyde. The electrophoresed RNA was then transferred to nitrocellulose filters by standard methods. Each sample was hybridized to specific probes for gamma globin mRNA, mRNA encoding the erythroid specific transcription factor GATA-1 and 28S ribosomal RNA (which was used for standardization). The gamma globin and GATA-1 probes were cDNA probes, which were labeled with ^32 p by random priming reactions (Promega Biotech Inc.). The 28S ribosomal RNA probe was an oligonucleotide having the sequence 5' […] 3' (SEQ ID NO: 3), which was labeled by 5' end labeling using T4 polynucleotide kinase (New England Biolabs). Nucleotide probes were hybridized to the RNA nitrocellulose filters according to standard techniques. After hybridization, radioactive signals on the nitrocellulose filters were directly quantified using a BioRad GS-250 Molecular Imager. mRNA hybridization intensities were normalized to the amount of 28S ribosomal RNA present for each sample. The results are summarized below in Table 1:
To determine if BA exerts its inductive effects by acting directly on pre-existing proteins in the cells, the effect of the protein synthesis inhibitor cycloheximide (CHX) on BA-induced expression of RNA was analyzed. In these experiments, gamma3'PE cells were incubated with 150 μg/ml CHX for 2 hr prior to addition of BA (5 mM). Control cells were incubated with either CHX or BA alone or were mock incubated. Cells were harvested 5 hr later for preparation of total RNA. RNA samples were electrophoresed, transferred to nitrocellulose and hybridized to a ^32 P-labeled luciferase cDNA probe as described in Example 4. The radioactive signals on the filter were quantitated using a BioRad GS-250 Molecular Imager and mRNA levels were normalized to values obtained for mock treated samples. […]

The subject of test [2] is erythroid differentiation of cultured cells. As to conditions: Leder and Leder 1975; cited from earlier work.
Test [3] has as its system gamma globin promoter deletion-luciferase constructs in K562 cells. Nature of the test: BA inducibility of gamma globin promoter deletion constructs. As to conditions: 5 mM BA, 24 hours. The format is cell-based, human. From the text:
Luciferase reporter gene constructs containing serial deletions in the 5' end of the gamma globin promoter were made by cloning truncated promoter DNA fragments upstream (i.e., 5') of the luciferase gene in pGL2. The gamma globin 3' Proximal Enhancer element (3'PE) was cloned downstream (i.e., 3') of the luciferase reporter gene in these constructs. Truncated gamma globin promoter DNA fragments were generated by PCR using as the upstream primer oligonucleotides having the sequences:
To create a construct with 5' terminus at position -140, the -577 reporter gene construct was digested with NcoI and KpnI, the fragment containing the deleted promoter and reporter gene (i.e., the large restriction fragment) was treated with T4 DNA polymerase to fill-in the restriction sites and the fragment was treated with T4 DNA ligase to religate the construct.
To determine the inducibility of each deletion construct by butyric acid, the constructs were introduced into K562 cells by electropotation as described above. Forty-eight hours after transfection, the cells were treated with 5 mMBA. Luciferase activity was measured 24 hours later. The inducibility of the deletion constructs is illustrated in FIGS. 16 and 17.

The next test concerns GATA-1 mRNA. Nature of the test: GATA-1 mRNA level (Northern) with BA and/or cycloheximide in gamma3'PE cells. The format is cell-based, human. Conditions: BA 5 mM, 5 hr. The procedure:
To determine if BA exerts its inductive effects by acting directly on pre-existing proteins in the cells, the effect of the protein synthesis inhibitor cycloheximide (CHX) on BA-induced expression of RNA was analyzed. In these experiments, gamma3'PE cells were incubated with 150 μg/ml CHX for 2 hr prior to addition of BA (5 mM). Control cells were incubated with either CHX or BA alone or were mock incubated. Cells were harvested 5 hr later for preparation of total RNA. RNA samples were electrophoresed, transferred to nitrocellulose and hybridized to a ^32 P-labeled luciferase cDNA probe as described in Example 4. The radioactive signals on the filter were quantitated using a BioRad GS-250 Molecular Imager and mRNA levels were normalized to values obtained for mock treated samples. The results are presented graphically in FIG. 12, Panel A. BA treatment alone increased gamma globin-regulated luciferase mRNA by approximately 6 fold.
The results, normalized to mock treated samples, are depicted graphically in FIG. 12, Panel B. In contrast to luciferase mRNA which was induced by BA treatment, the level of GATA-1 RNA decreases about 3 fold in response to BA treatment.

Test [4] concerns neoplastic and non-neoplastic cells. Conditions: Newmark et al. 1994; cited from earlier work.
In test [5] the test system is gamma globin-luciferase reporter constructs in K562 cells. Nature of the test: BA inducibility of different gamma globin-reporter gene constructs in transiently transfected K562 cells. The format is cell-based, human. From the text:
The entire human globin gene locus, spanning approximately 150 kilobases, is shown schematically in FIG. 1. Depicted are the different globin structural genes and cis-active regulatory elements (e.g., promoters and enhancers). To construct gamma globin reporter gene plasmids, nucleic acid fragments comprising nucleotide sequences normally flanking (i.e., at either the 5' or 3' end of) the gamma globin gene were obtained and subcloned into a plasmid encoding a reporter gene. The human gamma globin 5' promoter fragment consisted of nucleotides -1200 to +30, relative to the start site of transcription (nucleotide numbers 38205 to 39435 of the human gamma globin gene in the GENEMBL database, accession number J00179). The promoter fragment was obtained from human genomic DNA by polymerase chain reaction (PCR) amplification using oligonucleotide primers of the sequences: […]
These constructs are illustrated schematically in FIG. 2.
In a first series of experiments, K562 cells transiently transfected with the different gamma globin-reporter genes described in Example 1 were treated with butyric acid (BA). After treatment, the level of reporter gene activity (i.e., luciferase activity) in the treated cells was compared to determine the BA-inducibility of the different reporter gene constructs. The results are shown graphically in FIG. 2, which illustrates the fold induction of luciferase activity by BA relative to untreated cells. […] All other constructs tested (including gammaSV40, beta3'PE, HS2/3gamma3'PE and gamma) were at least 2 fold less responsive to BA treatment.
To test whether the increased sensitivity of the gamma globin promoter to BA was due to a specific property of the globin 3' Proximal Enhancer or if this was a property of transcriptional enhancers in general, two copies of the 72 bp repeat of the SV40 enhancer (isolated by PCR from the simian virus 40 genome) were substituted for the 3' Proximal Enhancer in the context of the gamma globin promoter (construct gammaSV40). […] This may be due to the unnatural proximity of these enhancer sequences to the gamma globin promoter in this construct. Normally, these sequence reside over 30 kB upstream of the promoter and one function of BA in vivo may be to promote interaction between the chromosomal LCR sequences and the gamma globin promoter. Artificially positioning the LCR components near the gamma globin promoter may have in fact complemented the effect of BA. Thus, empirically, it appears that maintaining the cis-active elements of the gamma globin locus in their natural context is important for developing the most sensitive reporter gene assay system for detecting gone induction by short chain fatty acids such as BA.
A general note: Reporter assays use an easily measured gene product as a stand-in for the process of interest.

`CCCC(=O)O` [BA, butyric acid]: the fold induction at 5000 µM in test [1] was roughly 6. Also, the “induction of erythroid differentiation” value in test [2] is “potent inducer of erythroid differentiation of cultured cells”. For the same molecule, in test [3], the “BA inducibility on promoter deletion to -108” value is on record as “markedly reduced the BA inducibility of the construct” and the “BA responsiveness on promoter deletion from -1260 to -140” value is “did not significantly alter the responsiveness of the reporter construct to BA”. The “decrease in GATA-1 RNA level” value in the test on GATA-1 mRNA was “about 3 fold”. In test [4], the induction of differentiation result was “induce differentiation of neoplastic and non-neoplastic cells”. Further, the “effect of LCR sequences on BA sensitivity of gamma3'PE construct” value in test [5] (HS2/3gamma3'PE vs gamma3'PE) was “reduce the sensitivity of the gamma3'PE construct to BA”. Besides, in test [5] (beta globin promoter with 3'Proximal Enhancer), the “BA induction of beta3'PE construct” value was “not inducible”. In addition, in test [5] (gamma3'PE, fold induction relative to untreated cells), the “BA responsiveness of gamma3'PE construct” value is “most responsive to BA”. Moreover, the “BA induction of gamma construct” value in test [5] (gamma globin promoter without 3' Proximal Enhancer) is recorded as “inducible, albeit to a lesser extent than when in the context of the 3' Proximal Enhancer”. Moreover, the “SV40 enhancer effect on BA responsiveness of gamma globin promoter” value in test [5] (gammaSV40) is “not effective in augmenting the responsiveness of the gamma globin promoter to BA”. The “fold lower BA responsiveness of other constructs than gamma3'PE” value in test [5] (gammaSV40, beta3'PE, HS2/3gamma3'PE and gamma, transient transfection) was “at least 2 fold”. The “BA induction of promoterless constructs” value in test [5] (luciferase gene only or fused to 3'Proximal Enhancer) is given as “not induced by BA”.
